{"source": "patent US8076485B2", "about": "“Methylphenidate derivatives and uses of them” (priority 2005, dated 2011)", "key": {"TNFα": {"test_system": "TNFα", "test": "TNFα release from LPS-stimulated THP-1 monocytes (ELISA)", "type": "cell-based", "conditions": "THP-1, LPS 200 ng/ml; Cpd II 15 μg/ml, Dex 10 μM", "experimental": "THP-1 is a monocyte cell line obtained from American Type Culture Collection (ATCC) (catalog no. TIB-202). […] After 1 hour, lipopolysaccharide (LPS) (obtained from Sigma) was added to the cultures to give a final concentration of 200 ng/ml, and the cells were then incubated for an additional 4 hours or for an additional 24 hours. After the incubation, the cells were centrifuged, and the supernatants were collected. The concentrations of IL-8 and TNFα in the supernatants were determined by ELISA.\nThe TNFα ELISA was performed as described in Example 2."}, "erythropoietin (EPO)": {"test_system": "erythropoietin (EPO)", "test": "Erythropoietin (EPO) release from HepG2 cells (ELISA)", "type": "cell-based, human", "conditions": "24 hours", "experimental": "HepG2 is a human hepatic cancer cell line, which was obtained from ATCC. HepG2 cells were grown to confluence in 25 cm^2 flasks in IMDM medium containing 10% FCS. Then, the cells were trypsinized as follows. The medium in each flask was aspirated and replaced with 5 ml of 0.025% trypsin/EDTA (Cambrex). The cells were monitored on a microscope until they no longer adhered to the flasks. Then, 5 ml of trypsin neutralizing solution (TNS) (Cambrex) were added to each flask to stop the reaction. The cell suspension was centrifuged at 1000 rpm for 10 minutes, and the supernatants were aspirated. The cells were reconstituted in fresh medium and counted. Then, 4 ml of the cell suspension in medium containing at 1.22×10^6 cells/ml were mixed with an additional 1 ml of medium. Next, 0.5 ml/well of the resulting cell suspension was added to wells in a 24-well culture plate (about 500,000 cells/well). The cells were treated as indicated in Table 5 below and incubated for 24 hours at 37° C., with or without 5% CO2. The supernatants were removed from the wells and centrifuged to remove debris. Next, the supernatants were analyzed for erythropoietin (EPO) production. EPO was measured by ELISA using a kit obtained from R & D Systems, Minneapolis, Minn. (catalog no. DE900) following the manufacturer's instructions."}, "NFκB": {"test_system": "NFκB", "test": "Activated NFκB in TNFα- or VEGF-treated HIAECs (TransAM assay)", "type": "cell-based", "conditions": "Homo sapiens, VEGF 10 ng/ml, Cpd II 15 μg/ml, read-out: Percent Inhibition (NFκB)", "experimental": "Passage 8 (human iliac artery endothelial cells (HIAECs) (obtained from ATCC; catalog no. CC-2545) were grown to confluence in 25 cm^2 flasks in EGM-2 medium. Eighteen hours prior to the experiment, the medium was replaced with EGM-2 medium containing 0.1% FCS plus heparin, GA1000 (gentamycin) and bovine pituitary extract (all from Cambrex) to place the cells in a resting state. To perform the experiment the medium was aspirated from the flasks, and the following additives were added to the flasks in fresh medium (total volume of 5 ml/flask): 15 μg/ml of the compound of formula II (Cpd II) or 10 μM LY 294002. The flasks were incubated 2 hours at 37° C., 5% CO2. After this incubation, VEGF or TNFα was added to give a final concentration 10 ng/ml, and the flasks were incubated for an additional 30 minutes. Then, the amount of NFκB was determined using a TransAM™ NFκB p65/NFκB p50 Transcription Factor Assay Kit and a Nuclear Extract Kit from Active Motif North America, Carlsbad, Calif., as described in Example 12."}, "IL-8": {"test_system": "IL-8", "test": "IL-8 release by PHA-stimulated PBL (ELISA)", "type": "cell-based, human", "conditions": "Example 4, GR-192 PBL; 15 μg/ml Cpd II, 10 μM Dex; PHA 2 μg/ml, 96 hours; FIG. 8", "experimental": "Whole blood was drawn from GR-192, a normal human volunteer, and processed as described in Example 1 to give heat-inactivated serum and PBL. […] After this incubation, PHA was added to give a final concentration of 2 μg/ml, and the cells were incubated for an additional 96 hours at 37° C., 5% CO2. All cultures were performed in triplicate. Cells were then removed by centrifugation at 1000 rpm for 10 minutes, and the culture medium collected.\nTo perform the ELISA, matched pairs of antibodies against human IL-8 were purchased from Pierce Biotechnology and Biosource, respectively. ELISA strip well plates were coated with 2 μg/ml of antibody to IL-8 (in phosphate-buffered saline (PBS)) overnight at room temperature. The plates were then blocked using a 4% BSA solution in PBS for one hour, followed by the addition of 50 μl of experimental culture medium per well in duplicate. The plates were incubated at room temperature for one hour and then washed using 50 mM Tris pH 8.0 with 0.1% Tween 20. Then, solutions of 100 ng/ml biotinylated second antibody to IL-8 were made in blocking buffer, and 100 μl were added per well. The plates were incubated for 1 hour and washed again. […] OD was determined using microplate reader with a 450 nm filter."}, "Ras": {"test_system": "Ras", "test": "Ras activation pulldown assay in TRiPS cells", "type": "cell-based, human", "conditions": "15 μg/ml", "experimental": "Day 10 TRiPS cells, 1×10^6, were incubated with 15 μg/ml of the compound of formula II (Cpd II) for 1 hour at 37° C. Then, the cells were incubated with CD3/CD28 beads (1 μl per 100,000 cells) (obtained from Dynal) for 10 minutes at 37° C. The cells were then lysed with a mild buffer (supplied with Pierce EZ-Detect activation kit described below) to produce cell extracts. Protein concentrations of the resulting extracts were determined by bicinchoninic acid (BCA) assay (Pierce) and placed on ice for immediate use.\nPulldown assays were performed using Pierce EZ-Detect activation kits according to the manufacturer's instructions utilizing GST-RAF-1-RBD and GST-RalGDS-RBD for Ras and RAP-1 respectively. Briefly, 400 μg total protein from each extract was combined with recombinant protein and glutathione resin and incubated at 4° C. for one hour with gentle shaking The resin was then washed to remove unbound protein and the activated Ras and RAP-1 proteins were removed by boiling in the presence of SDS-PAGE loading dye containing reducing agent. Ras and RAP-1 western blots were performed to visualize the proteins using antibodies supplied with the kit. Densitometry of the X-ray films was done by scanning and computer analysis."}}}
{"smiles": "COC(=O)C(c1ccc(-c2ccccc2)cc1)C1CCCCN1", "note": "(stereo not drawn) [Cpd II]", "values": [{"measurement": "release of TNFα from the LPS-stimulated monocytes", "setting": "TNFα", "value": "significantly inhibited the release of TNFα"}, {"measurement": "Mean Units/ml EPO", "setting": "erythropoietin (EPO); HepG2, hypoxia (5% CO2), Cpd II 15 μg/ml, LY 294002 25 μM, hypoxia alone 108.39 ± 2.81", "value": "71.60 ± 2.01", "unit": "Units/ml"}, {"measurement": "release of EPO from the HepG2 cells", "setting": "erythropoietin (EPO); HepG2, hypoxia, 15 μg/ml", "value": "significantly inhibited the release of EPO"}, {"measurement": "inhibition at 15 µg/mL", "setting": "NFκB", "value": 70, "unit": "%"}, {"measurement": "IL-8 release induced by PHA", "setting": "IL-8", "value": "significantly inhibited IL-8 release"}, {"measurement": "inhibition of Ras protein", "setting": "Ras", "value": "very strong inhibition of Ras protein"}]}
